From patent publication US20230000842A1, “METHODS OF TREATING CARTILAGE DISORDERS THROUGH INHIBITION OF CLK AND DYRK” (SAMUMED, LLC, priority 2019, published 2023)

Assays:
CLK2 kinase = CLK2 kinase (Homo sapiens, UniProt P49760); assay: CLK2 kinase activity assay (Z-lyte FRET); format: biochemical; settings: Z-lyte Ser/Thr 6 peptide, 60 μM ATP, 1 h at room temperature;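 also: FRET read-out as coumarin to fluorescein emission ratio, unphosphorylated peptide as 0% and phosphorylated peptide as 100% controls, duplicate reactions, non-linear regression fit of dose-response curves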
Chain of CLK2 kinase (P49760 whole entry): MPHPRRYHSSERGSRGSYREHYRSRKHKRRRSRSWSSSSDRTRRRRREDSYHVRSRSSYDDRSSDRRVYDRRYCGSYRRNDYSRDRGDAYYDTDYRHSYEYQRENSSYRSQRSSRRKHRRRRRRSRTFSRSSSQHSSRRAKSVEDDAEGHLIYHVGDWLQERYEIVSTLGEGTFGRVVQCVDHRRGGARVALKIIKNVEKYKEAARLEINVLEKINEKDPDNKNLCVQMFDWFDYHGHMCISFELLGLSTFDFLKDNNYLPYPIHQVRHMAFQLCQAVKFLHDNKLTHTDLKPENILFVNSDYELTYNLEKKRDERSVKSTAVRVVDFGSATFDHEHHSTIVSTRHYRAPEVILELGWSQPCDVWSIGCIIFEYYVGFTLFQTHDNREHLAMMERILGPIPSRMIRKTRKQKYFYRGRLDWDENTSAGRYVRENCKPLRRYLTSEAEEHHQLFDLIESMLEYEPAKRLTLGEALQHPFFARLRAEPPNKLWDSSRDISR

[1] = tested on: primary human mesenchymal stem cells (hMSCs); assay: Chondrogenesis screening using primary human mesenchymal stem cells; format: cell-based; settings: Homo sapiens, Mesenchymal stem cells, hMSC chondrogenesis; for Emax: maximum activity relative to TGF-β3 (10 ng/mL) positive control, read-out: Max. Activity as % TGF-β3 activity; for EC50: concentration required to induce 50% levels of chondrogenesis with TGF-β3 as positive control, read-out: Conc (nM) of 50% TGF-β3 activity
From the text: Representative compounds were screened using primary human mesenchymal stem cells (hMSCs) to determine their ability to induce chondrogenesis (process by which cartilage is developed).
Human Mesenchymal Stem Cell Culture: Primary human mesenchymal stem cells (hMSCs) were purchased from Lonza (Walkersville, Md.) and expanded in Mesenchymal Stem Cell Growth Media (Lonza). Cells between passage 3 and 6 were used for the experiments.
Area of nodules in each well was normalized to the average of 3 DMSO treated wells on the same plate using Excel (Microsoft Inc.). The normalized averages (fold change over DMSO) of 2 or 3 replicate wells for each compound concentration were calculated. Due to solubility limitations of some of the compounds, curve fitting was incomplete leading to inaccurate EC50 determinations.
Using TGF-β3 as a positive control, the concentration of representative compounds required to induce 50% levels of chondrogenesis is reported. In addition, the maximum activity of each compound and the respective dose that each compound reached maximum chondrogenesis activity is reported.

[2] = tested on: Wnt pathway activity (SW480 colon carcinoma cells stably expressing the Sp5-Luc reporter); assay: Wnt pathway activity screening assay (Sp5-Luc reporter gene assay); settings: Homo sapiens, SW480, Table 4; SW480 cells stably expressing Sp5-Luc reporter, 10-point dose-response from 10 μM, 36 to 48 hours
CLK3 kinase = CLK3 kinase (Homo sapiens, UniProt P49761); assay: CLK3 kinase activity assay (Z-lyte FRET); format: biochemical; settings: Z-lyte Ser/Thr 18 peptide, 156 μM ATP, 1 h at room temperature;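 also: kinase activity read as coumarin/fluorescein emission ratio by FRET, unphosphorylated peptide as 0% and phosphorylated peptide as 100% control, values from non-linear regression of dose-response curves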
Chain of CLK3 kinase (P49761 whole entry): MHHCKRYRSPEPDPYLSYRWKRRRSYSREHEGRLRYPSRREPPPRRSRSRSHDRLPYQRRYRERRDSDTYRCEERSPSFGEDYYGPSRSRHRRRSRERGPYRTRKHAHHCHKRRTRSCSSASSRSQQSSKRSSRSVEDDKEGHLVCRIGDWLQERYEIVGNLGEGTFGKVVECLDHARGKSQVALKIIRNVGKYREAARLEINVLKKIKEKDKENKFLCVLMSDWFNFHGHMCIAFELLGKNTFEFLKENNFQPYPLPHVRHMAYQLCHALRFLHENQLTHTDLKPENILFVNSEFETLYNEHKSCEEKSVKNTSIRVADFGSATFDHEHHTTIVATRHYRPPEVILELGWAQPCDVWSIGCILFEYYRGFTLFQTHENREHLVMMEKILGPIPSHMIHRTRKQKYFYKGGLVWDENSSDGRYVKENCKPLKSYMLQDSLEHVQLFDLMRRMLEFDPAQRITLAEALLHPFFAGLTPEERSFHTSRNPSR

| Structure (SMILES) | EC50 (CLK2 kinase) | EC50 [2] | EC50 (CLK3 kinase) | EC50 [1] | Emax [1] |
| --- | --- | --- | --- | --- | --- |
| COc1cncc(C#Cc2c[nH]nc2C(=O)Nc2ccc(N3CCNCC3)nc2)c1 [compound 29] | 25 nM | > 10000 nM |  |  | 74.7% |
| Fc1cccc(-c2cncc3[nH]c(-c4n[nH]cc4C#Cc4cncc(OC5CCNCC5)c4)nc23)c1 [compound 33] | 3 nM | 4640 nM | 148 nM |  |  |
| Cc1n[nH]c2cc(F)c(-c3cncc(CN4CCCCC4)n3)cc12 [compound 40] | 45 nM | 2440 nM | 2380 nM |  |  |
| O=C(Nc1cccnc1)c1n[nH]c2ccc(-c3cncc(NC(=O)N4CCOCC4)c3)cc12 [compound 56] | 4 nM | 1250 nM | 47 nM |  |  |
| Cc1cc2[nH]nc(C(=O)Nc3ccc(CN4CCCC4)cc3)c2cc1-c1cccnc1 [compound 60] | 2 nM | 1090 nM | 581 nM |  |  |
| COc1cncc(-c2ccc3[nH]nc(-c4nc5c(-c6cccc(F)c6)cncc5[nH]4)c3n2)c1 [compound 149] | 2 nM |  | 65 nM | 20.6 nM | 55.5% |
| COc1cncc(-c2ccc3[nH]nc(-c4nc5c(-c6cccc(F)c6)ccnc5[nH]4)c3n2)c1 [compound 150] | 3 nM |  | 89 nM |  | 47% |
| Fc1cccc(-c2cncc3[nH]c(-c4n[nH]c5ccc(-c6cn[nH]c6)nc45)nc23)c1 [compound 154] | 3 nM | > 10000 nM |  | 20.6 nM | 51.8% |
| CN(C)CCOc1cncc(-c2cc3c(-c4cc5c(-c6ccc(F)cc6)nccc5[nH]4)n[nH]c3cn2)c1 [compound 318] | 19 nM | 3000 nM |  | 900 nM | 113% |
| Nc1cncc(-c2cc3c(-c4cc5c(-c6ccccc6F)ccnc5[nH]4)n[nH]c3cn2)c1 [compound 325] | 4 nM | > 10000 nM |  |  | 32.4% |
| CC(C)Nc1cncc(-c2cnc3[nH]nc(-c4cc5c(-c6ccccc6F)ccnc5[nH]4)c3c2)c1 [compound 333] | 20 nM | > 10000 nM |  | 10 nM | 81.6% |
| Cc1ccncc1-c1ccc2[nH]nc(-c3cc4c(-c5ccncc5)ccnc4[nH]3)c2n1 [compound 376] | 11 nM | > 10000 nM |  | 300 nM | 56.5% |
| Nc1cncc(-c2cnc3[nH]nc(-c4cc5c(-c6ccncc6)ccnc5[nH]4)c3c2)c1 [compound 380] | 5 nM | > 10000 nM |  |  | 11.9% |
| Nc1cncc(-c2cc3c(-c4cc5c(-c6ccncc6)cncc5[nH]4)n[nH]c3cn2)c1 [compound 381] | 3 nM | > 10000 nM |  | 10 nM | 52% |
| CCCC(=O)Nc1cncc(-c2cnc3[nH]nc(-c4cc5c(-c6ccncc6)ccnc5[nH]4)c3c2)c1 [compound 384] |  | 999 nM | 100 nM | 30 nM | 50.3% |
| O=C(CC1CCNCC1)Nc1cncc(-c2cnc3[nH]nc(-c4cc5c(-c6ccncc6)ccnc5[nH]4)c3c2)c1 [compound 393] | 6 nM | > 10000 nM |  |  | 26.7% |

| Structure (SMILES) | EC50 (CLK2 kinase) | EC50 [2] | EC50 (CLK3 kinase) | EC50 [1] | Emax [1] |
| --- | --- | --- | --- | --- | --- |
| c1cc(-c2ccnc3[nH]c(-c4n[nH]c5ccc(-c6cncc(CNCC7CCCC7)c6)nc45)cc23)ccn1 [compound 396] | 12 nM | > 10000 nM |  | 100 nM | 67.2% |
| CN(C)c1cncc(-c2cnc3[nH]nc(-c4cc5c(-c6ccncc6)cncc5[nH]4)c3c2)c1 [compound 397] | 3 nM | > 10000 nM |  |  | 191% |
| c1cc(-c2ccnc3[nH]c(-c4n[nH]c5ccc(-c6cncc(OCCN7CCCC7)c6)nc45)cc23)ccn1 [compound 404] | 5 nM | > 10000 nM |  |  | 39.6% |
| c1cc(-c2ccnc3[nH]c(-c4n[nH]c5ccc(-c6cncnc6)cc45)cc23)ccn1 [compound 405] | 3 nM | > 10000 nM |  |  | 17.3% |
| O=C(Nc1cncc(-c2cnc3[nH]nc(-c4cc5cccnc5[nH]4)c3c2)c1)c1ccccc1 [compound 436] | 8 nM | > 10000 nM |  |  | 21.8% |
| Cn1cc(-c2cnc3[nH]nc(-c4cc5cccnc5[nH]4)c3c2)cn1 [compound 454] | 3 nM | > 10000 nM |  | 300 nM | 51.7% |
| CN1CCN(c2cccc3[nH]c(-c4n[nH]c5ncc(-c6cncc(CN7CCCCC7)c6)cc45)cc23)CC1 [compound 494] | 12 nM |  | 973 nM | 300 nM |  |
| CN1CCN(c2ccnc3[nH]c(-c4n[nH]c5ccc(-c6cn[nH]c6)nc45)cc23)CC1 [compound 498] | 3 nM | > 10000 nM |  | 300 nM | 60.1% |
| CN1CCN(c2cc(C(=O)Nc3cc4cc(-c5cnn(C)c5)ccc4cn3)ccn2)CC1 [compound 545] |  |  |  |  | 27.1% |
| CNC(=O)c1ccc(C(=O)Nc2cc3cc(-c4cn(C)nn4)ccc3cn2)cn1 [compound 577] | 3 nM |  | 56 nM |  |  |
| Cn1cncc1-c1ccc2cnc(NC(=O)c3ccnc(N4CC(N)C4)c3)cc2c1 [compound 581] | 2 nM |  | 11 nM |  |  |
| O=C(Cc1ccccc1)Nc1cncc(-c2ccc3[nH]nc(-c4nc5c(-c6ccncc6)ccnc5[nH]4)c3n2)c1 [compound 626] | 7 nM | > 10000 nM |  |  |  |
| COc1cccc(-c2cncc3[nH]c(-c4n[nH]c5ccc(-c6cn[nH]c6)nc45)nc23)c1 [compound 633] | 3 nM | > 10000 nM |  |  |  |
| CN1CC2CCC(C1)N2C(=O)Nc1cc2cc(-c3cnn(C)c3)ccc2cn1 [compound 638] | 1130 nM | > 10000 nM |  |  |  |
| O=C(Nc1cc2cc(-c3cnco3)cnc2cn1)[C@H]1CC[C@H](CO)CC1 [compound 640] | 7430 nM | > 10000 nM |  |  |  |

Second part, led by results:

| EC50 (CLK2 kinase) | EC50 [2] | EC50 (CLK3 kinase) | EC50 [1] | Structure (SMILES) | Emax [1] |
| --- | --- | --- | --- | --- | --- |
| 46 nM | 409 nM |  |  | O=C(Nc1ccc(OCCN2CCCC2)nc1)c1n[nH]cc1C#Cc1cccnc1 [compound 28] | 68.8% |
| 1 nM | 256 nM | 1420 nM |  | Cc1n[nH]c2ccc(-c3cncc(NN4CCNCC4)n3)cc12 [compound 41] |  |
|  | 84.3 nM |  |  | Cc1n[nH]c2ccc(-c3cncc(NC4CCNC[C@@H]4F)n3)cc12 (stereo partly drawn) [compound 42] | 25.6% |
|  | 627 nM |  | 100 nM | Cc1n[nH]c2ccc(-c3cncc(OC4CCNC[C@@H]4F)n3)cc12 (stereo partly drawn) [compound 44] | 44.9% |
|  | 834 nM |  | 30 nM | Cc1n[nH]c2ccc(-c3cncc(OC4CCNC[C@H]4F)n3)cc12 (stereo partly drawn) [compound 45] | 54.2% |
|  | 227 nM |  | 300 nM | Cc1n[nH]c2ccc(-c3cncc(OC4CCNCC4(F)F)n3)cc12 (stereo not drawn) [compound 47] | 82.1% |
| 1 nM | 176 nM | 20 nM |  | CN(C)C(=O)Nc1cncc(-c2ccc3[nH]nc(C(=O)Nc4cccnc4)c3c2)c1 [compound 54] |  |
| 1 nM | 80 nM | 13 nM |  | CN1CCN(c2ccc(NC(=O)c3n[nH]c4ccc(-c5cncc(NC(=O)C6CC6)c5)cc34)cn2)CC1 [compound 55] |  |
| 1 nM | 37 nM | 34 nM |  | CN1CCN(Cc2ccc(NC(=O)c3n[nH]c4ccc(-c5cccnc5)cc34)cn2)CC1 [compound 62] |  |
| 1 nM | 68 nM | 343 nM |  | O=C(Nc1cnccc1NC(=O)C1CC1)c1n[nH]c2ccc(-c3cccnc3)cc12 [compound 63] |  |
| 1 nM | 106 nM | 21 nM |  | O=C(Nc1ccnnc1)c1n[nH]c2ccc(-c3cccnc3)cc12 [compound 64] |  |
| 1 nM | 330 nM | 36 nM |  | CN(C)Cc1cncc(NC(=O)c2n[nH]c3ccc(-c4cncc(CN5CCCC5)c4)cc23)c1 [compound 70] |  |
| 1 nM | 65 nM | 14 nM |  | CN(C)CCN(C)c1ccc(NC(=O)c2n[nH]c3ccc(-c4cncc(CN5CCCCC5)c4)cc23)cn1 [compound 84] |  |
| 1 nM | 49 nM | 22 nM |  | O=C(Nc1ccc(N2CCC(O)CC2)nc1)c1n[nH]c2ccc(-c3cncc(CN4CCCCC4)c3)cc12 [compound 91] |  |
| 5 nM | 101 nM | 71 nM |  | O=C(Nc1ccc(-c2ccccc2)nc1)c1n[nH]c2ccc(-c3cncc(CN4CCCCC4)c3)cc12 [compound 93] |  |
| 4 nM | 58 nM |  | 100 nM | c1cc(-c2cncc3[nH]c(-c4n[nH]c5ccc(-c6cncc(CNCC7CCCC7)c6)cc45)nc23)cs1 [compound 250] | 167% |
|  | 32 nM | 67 nM | 300 nM | CN(C)Cc1cncc(-c2cnc3[nH]nc(-c4nc5c(-c6ccsc6)cccc5[nH]4)c3c2)c1 [compound 251] | 105% |
